Test results: ChEMBL document CHEMBL4715746, “Polyvalent effect enhances diglycosidic antiplasmodial activity” (Eur J Med Chem, 2016)

How the values were obtained:
Plasmodium falciparum [1] = assay: Antiplasmodial activity against chloroquine-resistant Plasmodium falciparum W2 assessed as inhibition of parasite growth incubated for 48 hrs by SYBR green 1 dye based fluorescence assay; type: functional, organism-based
Plasmodium falciparum [2] = assay: Antiplasmodial activity against chloroquine-sensitive Plasmodium falciparum 3D7 assessed as inhibition of parasite growth incubated for 48 hrs by SYBR green 1 dye based fluorescence assay; type: functional, organism-based
HEK293 [3] = assay: Cytotoxicity against human HEK293 cells assessed as reduction in cell viability at 50,000 ug/L incubated for 24 hrs by MTT assay; type: cell-based; details: hek293, 24 h
HEK293 [4] = assay: Cytotoxicity against human HEK293 cells assessed as reduction in cell viability up to 500 ug/L incubated for 24 hrs by MTT assay; type: cell-based; details: hek293, 24 h
[5] = Plasmodium falciparum, W2, 48 h
[6] = Plasmodium falciparum, 3D7, 48 h

`CC(=O)OC[C@H]1O[C@@H](OCCCn2cc(COC[C@H]3O[C@@H](O[C@H]4[C@H](OCc5cn(CCCO[C@@H]6O[C@H](COC(C)=O)[C@@H](O)[C@H](O)[C@H]6O[C@@H]6O[C@@H](C)[C@H](OC(C)=O)[C@@H](OC(C)=O)[C@H]6OC(C)=O)nn5)[C@@H](OCc5cnnn5CCCO[C@@H]5O[C@H](COC(C)=O)[C@@H](O)[C@H](O)[C@H]5O[C@@H]5O[C@@H](C)[C@H](OC(C)=O)[C@@H](OC(C)=O)[C@H]5OC(C)=O)[C@H](OCc5cn(CCCO[C@@H]6O[C@H](COC(C)=O)[C@@H](O)[C@H](O)[C@H]6O[C@@H]6O[C@@H](C)[C@H](OC(C)=O)[C@@H](OC(C)=O)[C@H]6OC(C)=O)nn5)O[C@@H]4COCc4cn(CCCO[C@@H]5O[C@H](COC(C)=O)[C@@H](O)[C@H](O)[C@H]5O[C@@H]5O[C@@H](C)[C@H](OC(C)=O)[C@@H](OC(C)=O)[C@H]5OC(C)=O)nn4)[C@H](OCc4cnnn4CCCO[C@@H]4O[C@H](COC(C)=O)[C@@H](O)[C@H](O)[C@H]4O[C@@H]4O[C@@H](C)[C@H](OC(C)=O)[C@@H](OC(C)=O)[C@H]4OC(C)=O)[C@@H](OCc4cn(CCCO[C@@H]5O[C@H](COC(C)=O)[C@@H](O)[C@H](O)[C@H]5O[C@@H]5O[C@@H](C)[C@H](OC(C)=O)[C@@H](OC(C)=O)[C@H]5OC(C)=O)nn4)[C@H]3OCc3cnnn3CCCO[C@@H]3O[C@H](COC(C)=O)[C@@H](O)[C@H](O)[C@H]3O[C@@H]3O[C@@H](C)[C@H](OC(C)=O)[C@@H](OC(C)=O)[C@H]3OC(C)=O)nn2)[C@H](O[C@@H]2O[C@@H](C)[C@H](OC(C)=O)[C@@H](OC(C)=O)[C@H]2OC(C)=O)[C@@H](O)[C@@H]1O` showed an IC50 (Plasmodium falciparum [1]) of 12.6 µM and an IC50 (Plasmodium falciparum [2]) of 28.4 µM.

`CC(=O)OC[C@H]1O[C@@H](OCCCn2cc(COc3cc(OCc4cnnn4CCCO[C@@H]4O[C@H](COC(C)=O)[C@@H](O)[C@H](O)[C@H]4O[C@@H]4O[C@@H](C)[C@H](OC(C)=O)[C@@H](OC(C)=O)[C@H]4OC(C)=O)cc(OCc4cnnn4CCCO[C@@H]4O[C@H](COC(C)=O)[C@@H](O)[C@H](O)[C@H]4O[C@@H]4O[C@@H](C)[C@H](OC(C)=O)[C@@H](OC(C)=O)[C@H]4OC(C)=O)c3)nn2)[C@H](O[C@@H]2O[C@@H](C)[C@H](OC(C)=O)[C@@H](OC(C)=O)[C@H]2OC(C)=O)[C@@H](O)[C@@H]1O` was tested, and the IC50 (Plasmodium falciparum [1]; [5]) was 23.6 µM and the IC50 (Plasmodium falciparum [2]; [6]) was 41.1 µM.

`CCCCCCCCCCCCCCCCO[C@@H]1O[C@H](COC(C)=O)[C@@H](O)[C@H](O)[C@H]1O[C@@H]1O[C@@H](C)[C@H](OC(C)=O)[C@@H](OC(C)=O)[C@H]1OC(C)=O` was tested, and the Activity (HEK293 [3]) was “Toxic”, the IC50 (Plasmodium falciparum [1]; [5]) was 17.3 µM and the IC50 (Plasmodium falciparum [2]; [6]) was 24.6 µM. The Activity (HEK293 [4]) was “Non-Toxic”.

`CC(=O)OC[C@H]1O[C@@H](OCCCn2cc(COCCOCc3cn(CCCO[C@@H]4O[C@H](COC(C)=O)[C@@H](O)[C@H](O)[C@H]4O[C@@H]4O[C@@H](C)[C@H](OC(C)=O)[C@@H](OC(C)=O)[C@H]4OC(C)=O)nn3)nn2)[C@H](O[C@@H]2O[C@@H](C)[C@H](OC(C)=O)[C@@H](OC(C)=O)[C@H]2OC(C)=O)[C@@H](O)[C@@H]1O` showed an IC50 (Plasmodium falciparum [1]; [5]) of 37.1 µM and an IC50 (Plasmodium falciparum [2]; [6]) of 41.6 µM.

`CCN(CC)CCCC(C)Nc1ccnc2cc(Cl)ccc12` (configuration not stated) [CHLOROQUINE] was tested, and the Activity (HEK293 [3]) was “Toxic” and the Activity (HEK293 [4]) was “Non-Toxic”.

`CC(=O)OC[C@H]1O[C@@H](OCCCN=[N+]=[N-])[C@H](O[C@@H]2O[C@@H](C)[C@H](OC(C)=O)[C@@H](OC(C)=O)[C@H]2OC(C)=O)[C@@H](O)[C@@H]1O` was tested, and the Activity (HEK293 [3]) was “Non-Toxic”, the IC50 (Plasmodium falciparum [1]; [5]) was 41.9 µM and the IC50 (Plasmodium falciparum [2]; [6]) was 58.7 µM. For the same compound, the Activity (HEK293 [4]) was “Non-Toxic”.

With `CC(=O)OC[C@H]1O[C@@H](OCCCn2cc(COCC(COCc3cn(CCCO[C@@H]4O[C@H](COC(C)=O)[C@@H](O)[C@H](O)[C@H]4O[C@@H]4O[C@@H](C)[C@H](OC(C)=O)[C@@H](OC(C)=O)[C@H]4OC(C)=O)nn3)(COCc3cn(CCCO[C@@H]4O[C@H](COC(C)=O)[C@@H](O)[C@H](O)[C@H]4O[C@@H]4O[C@@H](C)[C@H](OC(C)=O)[C@@H](OC(C)=O)[C@H]4OC(C)=O)nn3)COCc3cn(CCCO[C@@H]4O[C@H](COC(C)=O)[C@@H](O)[C@H](O)[C@H]4O[C@@H]4O[C@@H](C)[C@H](OC(C)=O)[C@@H](OC(C)=O)[C@H]4OC(C)=O)nn3)nn2)[C@H](O[C@@H]2O[C@@H](C)[C@H](OC(C)=O)[C@@H](OC(C)=O)[C@H]2OC(C)=O)[C@@H](O)[C@@H]1O` the IC50 (Plasmodium falciparum [1]; [5]) was 25.2 µM and the IC50 (Plasmodium falciparum [2]; [6]) was 28.1 µM.

In the case of `CC(=O)OC[C@H]1O[C@@H](OCCCn2cc(COC[C@H]3O[C@@H](OCc4cn(CCCO[C@@H]5O[C@H](COC(C)=O)[C@@H](O)[C@H](O)[C@H]5O[C@@H]5O[C@@H](C)[C@H](OC(C)=O)[C@@H](OC(C)=O)[C@H]5OC(C)=O)nn4)[C@H](OCc4cnnn4CCCO[C@@H]4O[C@H](COC(C)=O)[C@@H](O)[C@H](O)[C@H]4O[C@@H]4O[C@@H](C)[C@H](OC(C)=O)[C@@H](OC(C)=O)[C@H]4OC(C)=O)[C@@H](OCc4cn(CCCO[C@@H]5O[C@H](COC(C)=O)[C@@H](O)[C@H](O)[C@H]5O[C@@H]5O[C@@H](C)[C@H](OC(C)=O)[C@@H](OC(C)=O)[C@H]5OC(C)=O)nn4)[C@H]3OCc3cn(CCCO[C@@H]4O[C@H](COC(C)=O)[C@@H](O)[C@H](O)[C@H]4O[C@@H]4O[C@@H](C)[C@H](OC(C)=O)[C@@H](OC(C)=O)[C@H]4OC(C)=O)nn3)nn2)[C@H](O[C@@H]2O[C@@H](C)[C@H](OC(C)=O)[C@@H](OC(C)=O)[C@H]2OC(C)=O)[C@@H](O)[C@@H]1O`, the IC50 (Plasmodium falciparum [1]; [5]) is reported as 21.9 µM and the IC50 (Plasmodium falciparum [2]; [6]) is reported as 13 µM.

In the case of `CO[C@@H]1O[C@H](COC(C)=O)[C@@H](O)[C@H](O)[C@H]1O[C@@H]1O[C@@H](C)[C@H](OC(C)=O)[C@@H](OC(C)=O)[C@H]1OC(C)=O`, the IC50 (Plasmodium falciparum [1]; [5]) is reported as 100 µM and the IC50 (Plasmodium falciparum [2]; [6]) is reported as 143 µM.
